This is an account of results in paper PMC5218480 (PLoS ONE, 2017).

In this assay the test system is MV-4-11 cells. The assay is described as follows: Gene expression microarray analysis (Affymetrix PrimeView) and GSEA. The assay is classed as cell-based, human. On the set-up: RFU PODN (11730768_x_at) / Fold change /veh PODN (11730768_x_at) / RFU LINC00158 (11744669_a_at) / Fold change /veh LINC00158 (11744669_a_at) / RFU DUSP10 (11751237_a_at) / Fold change /veh DUSP10 (11751237_a_at) / RFU ID3 (11757404_x_at) / Fold change /veh ID3 (11757404_x_at) / RFU PLEKHG5 (11737974_s_at) / Fold change /veh PLEKHG5 (11737974_s_at) / RFU LRRC4B (11730491_at) / Fold change /veh LRRC4B (11730491_at) / RFU GIMAP4 (11747438_a_at) / Fold change /veh GIMAP4 (11747438_a_at) / RFU KRT8 (11758183_x_at) / Fold change /veh KRT8 (11758183_x_at) / RFU CNN1 (11734310_a_at) / Fold change /veh CNN1 (11734310_a_at) / RFU VPS37D (11726825_at) / Fold change /veh VPS37D (11726825_at) / RFU C10orf10 (11716522_x_at) / Fold change /veh C10orf10 (11716522_x_at) / RFU KIR2DL2 /// KIR2DL4 /// KIR2DL5A /// KIR2DL5B /// KIR2DS1 /// KIR2DS2 /// KIR2DS3 /// KIR2DS4 /// KIR3DL3 /// KIR3DL3 /// KIR3DS1 (11738374_at) / Fold change /veh KIR2DL2 /// KIR2DL4 /// KIR2DL5A /// KIR2DL5B /// KIR2DS1 /// KIR2DS2 /// KIR2DS3 /// KIR2DS4 /// KIR3DL3 /// KIR3DL3 /// KIR3DS1 (11738374_at) / RFU C1QL1 (11718748_at) / Fold change /veh C1QL1 (11718748_at) / RFU TMPRSS4 (11747572_a_at) / Fold change /veh TMPRSS4 (11747572_a_at) / RFU HAMP (11756126_x_at) / Fold change /veh HAMP (11756126_x_at) / RFU RNFT2 (11725882_a_at) / Fold change /veh RNFT2 (11725882_a_at) / RFU NR4A2 (11747474_a_at) / Fold change /veh NR4A2 (11747474_a_at) / RFU ABCC12 (11746883_a_at) / Fold change /veh ABCC12 (11746883_a_at) / RFU TMEM136 (11760407_x_at) / Fold change /veh TMEM136 (11760407_x_at) / RFU CLDN22 /// WWC2 (11732394_at) / Fold change /veh CLDN22 /// WWC2 (11732394_at) / RFU HLA-DPB1 (11760878_x_at) / Fold change /veh HLA-DPB1 (11760878_x_at) / RFU SPINT1 (11716480_a_at) / Fold change /veh SPINT1 (11716480_a_at) / RFU GAP43 (11754022_s_at) / Fold change /veh GAP43 (11754022_s_at) / RFU A4GNT (11735810_at) / Fold change /veh A4GNT (11735810_at) / RFU PRB3 (11715151_x_at) / Fold change /veh PRB3 (11715151_x_at) / RFU TUBB4B (11761932_at) / Fold change /veh TUBB4B (11761932_at) / RFU CAPN14 (11732068_a_at) / Fold change /veh CAPN14 (11732068_a_at) / RFU TMCC2 (11721928_a_at) / Fold change /veh TMCC2 (11721928_a_at) / RFU IRGQ (11745062_a_at) / Fold change /veh IRGQ (11745062_a_at) / RFU FAM174B (11720279_a_at) / Fold change /veh FAM174B (11720279_a_at) / RFU TMPRSS4 (11748680_a_at) / Fold change /veh TMPRSS4 (11748680_a_at) / RFU FAM212B (11763350_a_at) / Fold change /veh FAM212B (11763350_a_at) / RFU PLEKHG5 (11743358_a_at) / Fold change /veh PLEKHG5 (11743358_a_at) / RFU ZSCAN30 (11745921_a_at) / Fold change /veh ZSCAN30 (11745921_a_at) / RFU CMKLR1 (11741424_a_at) / Fold change /veh CMKLR1 (11741424_a_at) / RFU LOC101060620 /// MAPK8IP1 (11723275_at) / Fold change /veh LOC101060620 /// MAPK8IP1 (11723275_at) / RFU SPTSSB (11747773_x_at) / Fold change /veh SPTSSB (11747773_x_at) / RFU PRSS12 (11739890_at) / Fold change /veh PRSS12 (11739890_at) / RFU BIN1 (11741810_x_at) / Fold change /veh BIN1 (11741810_x_at) / RFU WNT11 (11732464_a_at) / Fold change /veh WNT11 (11732464_a_at) / RFU C10orf10 (11716521_a_at) / Fold change /veh C10orf10 (11716521_a_at) / RFU C5orf56 (11738089_at) / Fold change /veh C5orf56 (11738089_at) / RFU CYB561 (11721691_x_at) / Fold change /veh CYB561 (11721691_x_at) / RFU ANKRD19P (11752326_a_at) / Fold change /veh ANKRD19P (11752326_a_at) / RFU OR2T12 /// OR2T33 /// OR2T8 (11738714_s_at) / Fold change /veh OR2T12 /// OR2T33 /// OR2T8 (11738714_s_at) / RFU VCAN (11748164_a_at) / Fold change /veh VCAN (11748164_a_at) / RFU JSRP1 (11732532_at) / Fold change /veh JSRP1 (11732532_at) / RFU KRTAP10-11 (11738290_x_at) / Fold change /veh KRTAP10-11 (11738290_x_at) / RFU MYO3A (11730013_a_at) / Fold change /veh MYO3A (11730013_a_at) / RFU EBF3 (11725865_a_at) / Fold change /veh EBF3 (11725865_a_at) / RFU CAMK2N1 (11719241_x_at) / Fold change /veh CAMK2N1 (11719241_x_at) / RFU C5orf56 (11738088_a_at) / Fold change /veh C5orf56 (11738088_a_at) / RFU OLFML3 (11715873_a_at) / Fold change /veh OLFML3 (11715873_a_at) / RFU LOC100653217 /// NTM (11731650_a_at) / Fold change /veh LOC100653217 /// NTM (11731650_a_at) / RFU MAPK11 (11762145_a_at) / Fold change /veh MAPK11 (11762145_a_at) / RFU FIZ1 (11724087_x_at) / Fold change /veh FIZ1 (11724087_x_at) / RFU OASL (11726364_x_at) / Fold change /veh OASL (11726364_x_at) / RFU SOX15 (11748057_x_at) / Fold change /veh SOX15 (11748057_x_at) / RFU CD79A (11719716_a_at) / Fold change /veh CD79A (11719716_a_at) / RFU HIST1H1D (11736915_at) / Fold change /veh HIST1H1D (11736915_at) / RFU CASKIN2 (11723855_a_at) / Fold change /veh CASKIN2 (11723855_a_at) / RFU LOC730098 (11760151_x_at) / Fold change /veh LOC730098 (11760151_x_at) / RFU OR4N2 (11742367_at) / Fold change /veh OR4N2 (11742367_at) / RFU PRRT2 (11749266_a_at) / Fold change /veh PRRT2 (11749266_a_at) / RFU SNX32 (11753110_a_at) / Fold change /veh SNX32 (11753110_a_at) / RFU CDHR5 (11726645_a_at) / Fold change /veh CDHR5 (11726645_a_at) / RFU RCAN1 (11760418_a_at) / Fold change /veh RCAN1 (11760418_a_at) / RFU FAM167A (11723789_a_at) / Fold change /veh FAM167A (11723789_a_at) / RFU FAM26E (11764081_at) / Fold change /veh FAM26E (11764081_at) / RFU ISYNA1 (11749810_s_at) / Fold change /veh ISYNA1 (11749810_s_at) / RFU ACY1 (11761880_at) / Fold change /veh ACY1 (11761880_at) / RFU 11764098_at / Fold change /veh 11764098_at / RFU SAMD14 (11745864_x_at) / Fold change /veh SAMD14 (11745864_x_at) / RFU NPB (11741838_a_at) / Fold change /veh NPB (11741838_a_at) / RFU TMPRSS6 (11731388_a_at) / Fold change /veh TMPRSS6 (11731388_a_at) / RFU KRTAP10-2 (11738614_at) / Fold change /veh KRTAP10-2 (11738614_at) / RFU ARHGAP8 /// PRR5-ARHGAP8 (11727945_x_at) / Fold change /veh ARHGAP8 /// PRR5-ARHGAP8 (11727945_x_at) / RFU KRTAP5-7 /// NADSYN1 (11734609_at) / Fold change /veh KRTAP5-7 /// NADSYN1 (11734609_at) / RFU RASL12 (11751679_a_at) / Fold change /veh RASL12 (11751679_a_at) / RFU CDKN2B (11736163_a_at) / Fold change /veh CDKN2B (11736163_a_at) / RFU PRF1 (11729649_at) / Fold change /veh PRF1 (11729649_at) / RFU, ZNF638 /// ZNF638-IT1 / Fold change vs veh, ZNF638 /// ZNF638-IT1 / RFU, PANK3 / Fold change vs veh, PANK3 / RFU, SH3YL1 / Fold change vs veh, SH3YL1 / RFU, ZEB2 / Fold change vs veh, ZEB2 / RFU, NRIP1 / Fold change vs veh, NRIP1 / RFU, PTTG1IP / Fold change vs veh, PTTG1IP / RFU, CAPN2 / Fold change vs veh, CAPN2 / RFU, MED14 / Fold change vs veh, MED14 / RFU, SNORA58 / Fold change vs veh, SNORA58 / RFU, C1orf63 / Fold change vs veh, C1orf63 / RFU, LRRFIP1 / Fold change vs veh, LRRFIP1 / RFU, NDUFAF7 / Fold change vs veh, NDUFAF7 / RFU, SLC12A2 / Fold change vs veh, SLC12A2 / RFU, IBTK / Fold change vs veh, IBTK / RFU, ESF1 / Fold change vs veh, ESF1 / Fold change vs veh, TMEM50B / RFU, TAOK1 / Fold change vs veh, TAOK1 / RFU, ACBD3 / Fold change vs veh, ACBD3 / RFU, TMA16 / Fold change vs veh, TMA16 / RFU, RWDD3 / Fold change vs veh, RWDD3 / RFU, BCAT1 / Fold change vs veh, BCAT1 / RFU, EDEM3 / Fold change vs veh, EDEM3 / RFU, TMEM33 / Fold change vs veh, TMEM33 / RFU, WDR75 / Fold change vs veh, WDR75 / RFU, AHCTF1 / Fold change vs veh, AHCTF1 / RFU, TFRC / Fold change vs veh, TFRC / RFU, ZDHHC17 / Fold change vs veh, ZDHHC17 / RFU, NOM1 / Fold change vs veh, NOM1 / RFU, ARL8B / Fold change vs veh, ARL8B / RFU, ZBTB11 / Fold change vs veh, ZBTB11 / RFU, TAMM41 / Fold change vs veh, TAMM41 / RFU, KIAA1704 /// LOC100996395 / Fold change vs veh, KIAA1704 /// LOC100996395 / RFU, ING1 / Fold change vs veh, ING1 / RFU, TRMT61B / Fold change vs veh, TRMT61B / RFU, FUBP3 / Fold change vs veh, FUBP3 / RFU, TP53 / Fold change vs veh, TP53 / RFU, TNKS2 / Fold change vs veh, TNKS2 / RFU, ZFP14 / Fold change vs veh, ZFP14 / RFU, ACTR2 / Fold change vs veh, ACTR2 / RFU, PPP3R1 / Fold change vs veh, PPP3R1 / RFU, PIK3R1 / Fold change vs veh, PIK3R1 / RFU, HNRNPA1 / Fold change vs veh, HNRNPA1 / RFU, RNF170 / Fold change vs veh, RNF170 / RFU, ZNF28 / Fold change vs veh, ZNF28 / RFU, RNGTT / Fold change vs veh, RNGTT / RFU, OGT / Fold change vs veh, OGT / RFU, BRD1 / Fold change vs veh, BRD1 / RFU, MARS / Fold change vs veh, MARS / RFU, ZNF655 / Fold change vs veh, ZNF655 / RFU, FAHD1 / Fold change vs veh, FAHD1 / RFU, BDP1 / Fold change vs veh, BDP1 / RFU, LRRCC1 / Fold change vs veh, LRRCC1 / RFU, ARID1A / Fold change vs veh, ARID1A / RFU, ZNF146 / Fold change vs veh, ZNF146 / RFU, ZNF330 / Fold change vs veh, ZNF330 / RFU, GPN3 / Fold change vs veh, GPN3 / RFU, C9orf123 / Fold change vs veh, C9orf123 / RFU, N4BP2L2 / Fold change vs veh, N4BP2L2 / RFU, ARFIP1 / Fold change vs veh, ARFIP1 / RFU, FAM179B / Fold change vs veh, FAM179B / RFU, BCL10 / Fold change vs veh, BCL10 / RFU, UHRF1BP1L / Fold change vs veh, UHRF1BP1L / RFU, BET1 / Fold change vs veh, BET1 / RFU, CNOT2 / Fold change vs veh, CNOT2 / RFU, ZNF268 / Fold change vs veh, ZNF268 / Fold change vs veh, ZNF507 / RFU, DGCR2 / Fold change vs veh, DGCR2 / RFU, WDSUB1 / Fold change vs veh, WDSUB1 / Fold change vs veh, HSP90B1 /// MIR3652 / RFU, ADSS / Fold change vs veh, ADSS / RFU, GK / Fold change vs veh, GK / RFU, ZNF148 / Fold change vs veh, ZNF148 / RFU, TAF9 / Fold change vs veh, TAF9 / RFU, SLC1A5 / Fold change vs veh, SLC1A5 / RFU, SLMO2 / Fold change vs veh, SLMO2 / RFU, ABCC4 / Fold change vs veh, ABCC4 / RFU, LOC101060439 /// RAP1B / Fold change vs veh, LOC101060439 /// RAP1B / RFU, RFX7 / Fold change vs veh, RFX7 / RFU, GTPBP10 / Fold change vs veh, GTPBP10 / RFU, CNEP1R1 / Fold change vs veh, CNEP1R1 / RFU, BIVM-ERCC5 /// ERCC5 / Fold change vs veh, BIVM-ERCC5 /// ERCC5 / RFU, ILF3 / Fold change vs veh, ILF3 / RFU 11762660_at / Fold change /veh 11762660_at / RFU VCAN (11757783_s_at) / Fold change /veh VCAN (11757783_s_at) / RFU DDX43 (11728927_at) / Fold change /veh DDX43 (11728927_at) / RFU KRT8 (11758188_x_at) / Fold change /veh KRT8 (11758188_x_at) / RFU NKD1 (11759106_at) / Fold change /veh NKD1 (11759106_at) / RFU SRD5A1 (11742802_a_at) / Fold change /veh SRD5A1 (11742802_a_at) / RFU TPSAB1 /// TPSB2 (11721975_s_at) / Fold change /veh TPSAB1 /// TPSB2 (11721975_s_at) / RFU GSTM3 (11746129_a_at) / Fold change /veh GSTM3 (11746129_a_at) / RFU IL23R (11737362_x_at) / Fold change /veh IL23R (11737362_x_at) / RFU TMEM51 (11727254_a_at) / Fold change /veh TMEM51 (11727254_a_at) / RFU PIWIL2 (11732686_x_at) / Fold change /veh PIWIL2 (11732686_x_at) / RFU ORM1 (11744905_x_at) / Fold change /veh ORM1 (11744905_x_at) / RFU CCDC152 (11743942_at) / Fold change /veh CCDC152 (11743942_at) / RFU ECM1 (11717891_a_at) / Fold change /veh ECM1 (11717891_a_at) / RFU IL23R (11748794_a_at) / Fold change /veh IL23R (11748794_a_at) / RFU TNFAIP8L3 (11732012_x_at) / Fold change /veh TNFAIP8L3 (11732012_x_at) / RFU MBOAT4 (11741988_at) / Fold change /veh MBOAT4 (11741988_at) / RFU 11764193_at / Fold change /veh 11764193_at / RFU TMEM53 (11763286_at) / Fold change /veh TMEM53 (11763286_at) / RFU MAGEB2 (11727129_at) / Fold change /veh MAGEB2 (11727129_at) / RFU TMEM200A (11744735_a_at) / Fold change /veh TMEM200A (11744735_a_at) / RFU CCDC152 (11751479_a_at) / Fold change /veh CCDC152 (11751479_a_at) / RFU FAM211A (11726209_a_at) / Fold change /veh FAM211A (11726209_a_at) / RFU RGS16 (11746705_a_at) / Fold change /veh RGS16 (11746705_a_at) / RFU VCAN (11755009_s_at) / Fold change /veh VCAN (11755009_s_at) / RFU RHOB (11743442_s_at) / Fold change /veh RHOB (11743442_s_at) / RFU RGS16 (11720943_a_at) / Fold change /veh RGS16 (11720943_a_at) / RFU RGS16 (11720944_at) / Fold change /veh RGS16 (11720944_at) / RFU, VPS4B / Fold change vs veh, VPS4B / RFU, CREB1 / Fold change vs veh, CREB1 / RFU, DNAJC13 / Fold change vs veh, DNAJC13 / RFU, GNAQ / Fold change vs veh, GNAQ / RFU, CDK5R1 / Fold change vs veh, CDK5R1 / RFU, ZRANB3 / Fold change vs veh, ZRANB3 / RFU, CUL4A / Fold change vs veh, CUL4A / RFU, CCNY / Fold change vs veh, CCNY / RFU, UFL1 / Fold change vs veh, UFL1 / RFU, COG3 / Fold change vs veh, COG3 / RFU, DIAPH2 / Fold change vs veh, DIAPH2 / RFU, SKA2 / Fold change vs veh, SKA2 / RFU, AFF3 / Fold change vs veh, AFF3 / RFU, LMF1 / Fold change vs veh, LMF1 / RFU, IPO11 / Fold change vs veh, IPO11 / RFU, DFFB / Fold change vs veh, DFFB / RFU, FOXP1 / Fold change vs veh, FOXP1 / RFU, CARD8 / Fold change vs veh, CARD8 / RFU, STRN3 / Fold change vs veh, STRN3 / RFU, ADK / Fold change vs veh, ADK / RFU, RASSF2 / Fold change vs veh, RASSF2 / RFU, WIPF1 / Fold change vs veh, WIPF1 / RFU, LARP1B / Fold change vs veh, LARP1B / RFU, RASA1 / Fold change vs veh, RASA1 / RFU, RB1 / Fold change vs veh, RB1 / RFU, PPFIA1 / Fold change vs veh, PPFIA1 / RFU, MAT2A / Fold change vs veh, MAT2A / RFU, CCT5 / Fold change vs veh, CCT5 / RFU, WDR92 / Fold change vs veh, WDR92 / RFU, CUX1 / Fold change vs veh, CUX1 / RFU, TTC7A / Fold change vs veh, TTC7A / RFU, TMEM135 / Fold change vs veh, TMEM135 / RFU, DEPTOR / Fold change vs veh, DEPTOR / RFU, CPM / Fold change vs veh, CPM / RFU, DNAJB6 / Fold change vs veh, DNAJB6 / RFU, CACNA2D3 / Fold change vs veh, CACNA2D3 / RFU, DTX4 / Fold change vs veh, DTX4 / RFU, TFCP2 / Fold change vs veh, TFCP2 / RFU, GMCL1 /// GMCL1P1 / Fold change vs veh, GMCL1 /// GMCL1P1 / RFU, AEBP2 / Fold change vs veh, AEBP2 / RFU, SNHG1 /// SNORD22 /// SNORD25 /// SNORD26 /// SNORD27 /// SNORD28 /// SNORD29 /// SNORD31 / Fold change vs veh, SNHG1 /// SNORD22 /// SNORD25 /// SNORD26 /// SNORD27 /// SNORD28 /// SNORD29 /// SNORD31 / Fold change (Aza/veh), C12orf56 (ProbeSet 11735607_a_at) / Fold change (ACY-1035/veh), C12orf56 (ProbeSet 11735607_a_at) / Fold change (Aza/veh), FGFR1OP (ProbeSet 11751329_s_at) / Fold change (ACY-1035/veh), FGFR1OP (ProbeSet 11751329_s_at) / Fold change (Aza/veh), VPS36 (ProbeSet 11739960_a_at) / Fold change (ACY-1035/veh), VPS36 (ProbeSet 11739960_a_at) / RFU SYPL1 (11715823_x_at) / Fold change /veh SYPL1 (11715823_x_at) / RFU IGFBP7 (11715501_s_at) / Fold change /veh IGFBP7 (11715501_s_at) / RFU REEP3 (11722064_at) / Fold change /veh REEP3 (11722064_at) / RFU IGLL1 (11728026_x_at) / Fold change /veh IGLL1 (11728026_x_at): dose or concentration left out as unconfirmed. The following applies: ProbeSet 11722022_s_at; LIST D.

Regarding `Nc1ncn([C@@H]2O[C@H](CO)[C@@H](O)[C@H]2O)c(=O)n1` [azacitidine], the “RFU, CDK5R1” value was found to be 40.46 RFU.
